In patent publication US20250059188A1, “ARYLSULPHONAMIDE COMPOUNDS” (Anaxis Pharma Pty Ltd, priority 2021, published 2025):

Experiments:
human MLKL (full length) = human MLKL (full length) (Homo sapiens (Human), UniProt Q8NB16); test: KINOMEscan binding assay, human MLKL (full length); conditions: equilibrium dissociation constant
Method in brief: (§1)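 Active-site competition binding: DNA-tagged kinase (T7 phage fusion from BL21-derived E. coli lysate, or HEK-293-expressed) captured on immobilized-ligand beads, with bound kinase in the eluate quantified by qPCR. Compounds ran as 11-point 3-fold dilutions, 1% DMSO, top 30,000 nM for most. Kd came from a Hill fit (slope −1).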

human RIPK1 = human RIPK1 (Homo sapiens (Human), UniProt Q13546); test: KINOMEscan binding assay, human RIPK1; conditions: equilibrium dissociation constant
Method in brief: as §1

human RIPK3 = human RIPK3 (Homo sapiens (Human), UniProt Q9Y572); test: KINOMEscan binding assay, human RIPK3; conditions: equilibrium dissociation constant
Method in brief: as §1

[1] = test system: U937 human histiocytic leukemia cell line; test: Inhibition of TSQ induced necroptosis in U937 cells (CellTitre-Glo); conditions: Homo sapiens, U-937, TSQ cocktail (TNF, Smac mimetic, Q-VD-OPh), 48 hours, read-out: Inhibition of TSQ-induced necroptosis (IC50 cell-based assay)
Experimental: Cellular Assay: Screening Compounds for Inhibition of TSQ Induced Necroptosis, 384 Well Plate Format.
(§2) • Cell Line ID: U937 human histiocytic leukemia cell line. • Cell Concentration (cells/well): Final cell density is 20000 cells per well. • Cell growth medium: HT-RPMI medium+7.4% Fetal Bovine Serum (FBS). Cells are cultured in Corning 150 cm^2 tissue culture flasks with vented caps at 37° C./5% CO2. • Incubation: Plates were incubated at 37° C./5% CO2 in a humidified incubator for 48 hours following addition of compounds and death stimuli (TSQ cocktail). • Compound concentration: 36 μM starting concentration, 1:3 dilution, 10 point • DMSO final concentration (% v/v): 0.3%. Compounds in TSQ Cocktail (T: TNF; S: Smac Mimetic; Q: Q-VD-OPh) and their Final Concentrations: • hTNF-Fc (100 ng/ml)—produced by standard procedures as shown in Bossen et al., J. Biol. Chem., 2006, 281(20), 13964-13971. • Compound A (500 nM) —Smac mimetic, Tetralogic and SYNthesis med chem • Q-VD-OPh (10 μM) —MP Biomedicals
(§3) The cellular assay was carried out according to the following steps: • 1. Each well was prepared by sequential addition of: • a. DMSO (control; columns 1-2 and 23-24) or compound in DMSO—addition was performed using acoustic transfer of nL volumes of stock compound to give final test concentrations of 36, 12, 4, 1.3, 0.44, 0.148, 0.049, 0.016, 0.005 and 0.002 μM. All wells were backfilled with DMSO to a final total volume in the well of 100 nL. • b. Following compound/DMSO addition in step (a), 40 μL of cell suspension (5×10^5 cells/mL) was added to provide a final cell concentration of 20,000 cells per well, and • c. Following cell addition in step (b), 10 μL of 5×TSQ cocktail (except to positive controls; columns 1 and 23) was added to each well. • 2. After 48 hours, plate was removed from the 37° C. incubator and equilibrated to room temperature for 45 minutes. • 3. 15 μL of room temperature CellTitre-Glo2™ (Promega™) was added to each well. • 4. Shook plates for 2 minutes (˜600 rpm) and incubated at room temperature for 15 minutes to allow signal to stabilise. • 5. Read luminescence readout on a plate reader.
Percent viability was calculated for each compound according to equation (2): […]
(§4) 10 point titration curves were fitted with the 4 parameter logistic nonlinear regression model and the IC50 reported reflect the inflection point of the curve for curve fitting.
(§5) • Assay involving the TSQ cocktail (T: TNF; S: Smac mimetic; Q: Q-VD-OPh): TSQ treatment ensures that cells specifically undergo necroptotic cell death. TNF activates the TNF receptor, Smac mimetic directs the signal away from proinflammatory signaling and toward the RIPK1/RIPK3-mediated cell death pathways, and Q-VD-OPh ensures that the apoptotic response is blocked leaving only the programmed necrosis response. The compounds' activity (solution in DMSO) tested in this TSQ-induced assay was evaluated by determining the number of viable cells in culture by measuring the amount of ATP present as measured by CelltiterGlo. • Counter screen: In parallel, all compounds were tested for their ability to affect cell viability. The same U937 cells were treated with compound in DMSO without the TSQ cocktail. This counter screen enabled evaluation of off-target effects. In this case, cell viability was measured by CelltiterGlo.

U937 cells = test: Counter screen: U937 cell viability without TSQ cocktail (off-target effect); parameters: species or system human; conditions: Homo sapiens, U-937, compound without TSQ cocktail, read-out: Off-target effect (IC50 cell-based assay)
Experimental: as §2, §3, §4, §5

Chain of human RIPK3 (Q9Y572 whole entry): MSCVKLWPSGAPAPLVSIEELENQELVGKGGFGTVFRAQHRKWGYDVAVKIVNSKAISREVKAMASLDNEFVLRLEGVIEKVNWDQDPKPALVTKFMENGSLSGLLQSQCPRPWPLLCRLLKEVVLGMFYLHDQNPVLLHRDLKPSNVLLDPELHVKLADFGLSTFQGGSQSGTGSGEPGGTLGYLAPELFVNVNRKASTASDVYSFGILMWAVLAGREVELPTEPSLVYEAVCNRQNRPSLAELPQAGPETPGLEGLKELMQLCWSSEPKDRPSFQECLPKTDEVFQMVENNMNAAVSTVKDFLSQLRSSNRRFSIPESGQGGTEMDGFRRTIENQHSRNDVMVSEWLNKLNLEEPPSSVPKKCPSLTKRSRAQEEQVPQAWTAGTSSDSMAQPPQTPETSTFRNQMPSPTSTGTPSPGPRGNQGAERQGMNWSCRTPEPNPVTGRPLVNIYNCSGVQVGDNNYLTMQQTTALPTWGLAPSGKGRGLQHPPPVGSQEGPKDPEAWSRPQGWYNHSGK
Chain of human MLKL (full length) (Q8NB16 whole entry, the tested form may be a part): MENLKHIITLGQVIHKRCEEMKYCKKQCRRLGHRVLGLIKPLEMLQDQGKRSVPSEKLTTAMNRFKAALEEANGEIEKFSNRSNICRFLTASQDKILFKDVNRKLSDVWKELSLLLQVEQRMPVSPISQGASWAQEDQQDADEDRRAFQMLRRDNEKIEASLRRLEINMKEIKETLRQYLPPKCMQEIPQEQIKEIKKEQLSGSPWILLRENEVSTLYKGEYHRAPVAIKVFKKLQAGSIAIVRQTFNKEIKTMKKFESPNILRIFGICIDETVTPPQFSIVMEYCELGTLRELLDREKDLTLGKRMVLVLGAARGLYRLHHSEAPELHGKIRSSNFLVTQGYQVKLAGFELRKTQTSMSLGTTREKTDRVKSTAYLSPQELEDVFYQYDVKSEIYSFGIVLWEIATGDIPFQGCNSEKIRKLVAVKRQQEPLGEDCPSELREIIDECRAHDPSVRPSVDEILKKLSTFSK
Chain of human RIPK1 (Q13546 whole entry): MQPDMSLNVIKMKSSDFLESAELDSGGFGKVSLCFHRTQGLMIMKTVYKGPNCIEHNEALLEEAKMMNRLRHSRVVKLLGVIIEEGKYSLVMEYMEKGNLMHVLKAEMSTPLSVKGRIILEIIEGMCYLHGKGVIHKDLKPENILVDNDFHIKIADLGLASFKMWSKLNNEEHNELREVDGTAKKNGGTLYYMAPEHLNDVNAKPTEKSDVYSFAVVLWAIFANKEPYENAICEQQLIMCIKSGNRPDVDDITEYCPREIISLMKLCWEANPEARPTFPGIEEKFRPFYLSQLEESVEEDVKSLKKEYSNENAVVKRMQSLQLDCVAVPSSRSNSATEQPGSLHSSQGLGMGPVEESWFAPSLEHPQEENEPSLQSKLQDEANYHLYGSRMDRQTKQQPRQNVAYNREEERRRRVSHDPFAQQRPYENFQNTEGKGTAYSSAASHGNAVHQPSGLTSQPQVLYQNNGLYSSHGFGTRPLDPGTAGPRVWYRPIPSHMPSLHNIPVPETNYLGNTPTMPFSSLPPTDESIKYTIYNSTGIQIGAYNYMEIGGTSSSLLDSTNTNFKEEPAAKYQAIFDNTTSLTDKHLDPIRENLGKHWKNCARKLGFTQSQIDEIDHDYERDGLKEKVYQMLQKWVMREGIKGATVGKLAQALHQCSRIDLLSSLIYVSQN

| Compound | Kd (human MLKL (full length)) [µM] | Kd (human RIPK1) [µM] | Kd (human RIPK3) [µM] | IC50 [1] [µM] | IC50 (U937 cells) [µM] |
| --- | --- | --- | --- | --- | --- |
| C[C@H](Oc1cc(-c2cnn3c(-c4cnn(CCO)c4)cnc(N)c23)ccc1NS(=O)(=O)C(F)F)c1ccc(F)cc1 [Compound 37, (S)-N-(4-(4-amino-7-(1-(2-hydroxyethyl)-1H-pyrazol-4-yl)pyrazolo[1,5-a]pyrazin-3-yl)-2-(1-(4-fluorophenyl)ethoxy)phenyl)-1,1-difluoromethanesulfonamide] | < 0.001 | > 10 | > 10 | 0.01 to 1 | > 10 |
| C[C@H](Oc1cc(-c2cnn3c(-c4ccncc4)cnc(N)c23)ccc1NS(=O)(=O)C(F)F)c1ccc(F)cc1 [Compound 39, (S)-N-(4-(4-amino-7-(pyridin-4-yl)pyrazolo[1,5-a]pyrazin-3-yl)-2-(1-(4-fluorophenyl)ethoxy)phenyl)-1,1-difluoromethanesulfonamide] | < 0.001 | > 10 | > 10 | 0.01 to 1 | > 10 |
| C[C@H](Oc1cc(-c2nn(C)c3c(-c4ccncn4)cnc(N)c23)ccc1NS(=O)(=O)C(F)F)c1ccc(F)cc1 [Compound 40, (S)—N-(4-(4-amino-1-methyl-7-(pyrimidin-4-yl)-1H-pyrazolo[4,3-c]pyridin-3-yl)-2-(1-(4-fluorophenyl)ethoxy)phenyl)-1,1-difluoromethanesulfonamide] | < 0.001 | > 10 | > 10 | < 0.01 | > 10 |
| C[C@H](Oc1cc(-c2nn(C)c3c(C4CCN(C)CC4)cnc(N)c23)ccc1NS(=O)(=O)C(F)F)c1ccc(F)cc1 [Compound 42, (S)—N-(4-(4-amino-1-methyl-7-(1-methylpiperidin-4-yl)-1H-pyrazolo[4,3-c]pyridin-3-yl)-2-(1-(4-fluorophenyl)ethoxy)phenyl)-1,1-difluoromethanesulfonamide] | 0.1 to 10 | > 10 | > 10 | 1 to 10 | > 10 |
| C[C@H](Oc1cc(-c2nn(C)c3c(-c4cnn(C5CCOCC5)c4)cnc(N)c23)ccc1NS(=O)(=O)CC(F)(F)F)c1ccc(F)cc1 [Compound 44, (S)—N-(4-(4-amino-1-methyl-7-(1-(tetrahydro-2H-pyran-4-yl)-1H-pyrazol-4-yl)-1H-pyrazolo[4,3-c]pyridin-3-yl)-2-(1-(4-fluorophenyl)ethoxy)phenyl)-2,2,2-trifluoroethane-1-sulfonamide] | 0.001 to 0.1 | > 10 | > 10 | 0.01 to 1 | > 10 |
| C[C@H](Oc1cc(-c2nn(C)c3c(-c4ccnc(C(C)(C)C)c4)cnc(N)c23)ccc1NS(=O)(=O)C(F)F)c1ccc(F)cc1 [Compound 48, (S)-N-(4-(4-amino-7-(2-(tert-butyl)pyridin-4-yl)-1-methyl-1H-pyrazolo[4,3-c]pyridin-3-yl)-2-(1-(4-fluorophenyl)ethoxy)phenyl)-1,1-difluoromethanesulfonamide] | 0.001 to 0.1 | > 10 | > 10 | 1 to 10 | > 10 |
| C[C@H](Oc1cc(-c2nn(C)c3c(C4=CCCN(C)C4)cnc(N)c23)ccc1NS(=O)(=O)C(F)F)c1ccc(F)cc1 [Compound 55, (S)—N-(4-(4-amino-1-methyl-7-(1-methyl-1,2,5,6-tetrahydropyridin-3-yl)-1H-pyrazolo[4,3-c]pyridin-3-yl)-2-(1-(4-fluorophenyl)ethoxy)phenyl)-1,1-difluoromethanesulfonamide] | < 0.001 | > 10 | > 10 | 1 to 10 | > 10 |

The next lines start with results.

| Kd (human MLKL (full length)) [µM] | Kd (human RIPK1) [µM] | Kd (human RIPK3) [µM] | Compound | IC50 [1] [µM] | IC50 (U937 cells) [µM] |
| --- | --- | --- | --- | --- | --- |
| < 0.001 | > 10 | > 10 | C[C@H](Oc1cc(-c2nn(C)c3c(-c4cnn(C5COC5)c4)cnc(N)c23)ccc1NS(=O)(=O)C(F)F)c1ccc(F)cc1 [Compound 38, (S)-N-(4-(4-amino-1-methyl-7-(1-(oxetan-3-yl)-1H-pyrazol-4-yl)-1H-pyrazolo[4,3-c]pyridin-3-yl)-2-(1-(4-fluorophenyl)ethoxy)phenyl)-1,1-difluoromethanesulfonamide] | < 0.01 | > 10 |
| < 0.001 | > 10 | > 10 | C[C@H](Oc1cc(-c2nn(C)c3c(-c4cnn(C5CCOC5)c4)cnc(N)c23)ccc1NS(=O)(=O)C(F)F)c1ccc(F)cc1 (stereo partly drawn) [Compound 41, N-(4-(4-amino-1-methyl-7-(1-(tetrahydrofuran-3-yl)-1H-pyrazol-4-yl)-1H-pyrazolo[4,3-c]pyridin-3-yl)-2-((S)-1-(4-fluorophenyl)ethoxy)phenyl)-1,1-difluoromethanesulfonamide] | < 0.01 | > 10 |
| 0.001 to 0.1 | > 10 | > 10 | C[C@H](Oc1cc(-c2nn(C)c3c(C4=CCOCC4)cnc(N)c23)ccc1NS(=O)(=O)C(F)F)c1ccc(F)cc1 [Compound 43, (S)-N-(4-(4-amino-7-(3,6-dihydro-2H-pyran-4-yl)-1-methyl-1H-pyrazolo[4,3-c]pyridin-3-yl)-2-(1-(4-fluorophenyl)ethoxy)phenyl)-1,1-difluoromethanesulfonamide] | 0.01 to 1 | > 10 |
| 0.001 to 0.1 | > 10 | > 10 | CCS(=O)(=O)Nc1ccc(-c2nn(C)c3c(-c4cnn(C5CCOCC5)c4)cnc(N)c23)cc1O[C@@H](C)c1ccc(F)cc1 [Compound 45, (S)-N-(4-(4-amino-1-methyl-7-(1-(tetrahydro-2H-pyran-4-yl)-1H-pyrazol-4-yl)-1H-pyrazolo[4,3-c]pyridin-3-yl)-2-(1-(4-fluorophenyl)ethoxy)phenyl)ethanesulfonamide] | 0.01 to 1 | > 10 |
| < 0.001 | > 10 | > 10 | CC(C)n1nc(-c2ccc(NS(=O)(=O)C(F)F)c(O[C@@H](C)c3ccc(F)cc3)c2)c2c(N)ncc(-c3ccncc3)c21 [Compound 50, (S)-N-(4-(4-amino-1-isopropyl-7-(pyridin-4-yl)-1H-pyrazolo[4,3-c]pyridin-3-yl)-2-(1-(4-fluorophenyl)ethoxy)phenyl)-1,1-difluoromethanesulfonamide] | 0.01 to 1 | > 10 |
| 0.001 to 0.1 | > 10 | > 10 | CC(C)n1nc(-c2ccc(NS(=O)(=O)C(F)F)c(O[C@@H](C)c3ccc(F)cc3)c2)c2c(N)ncc(-c3cnn(C4CCOCC4)c3)c21 [Compound 51, (S)-N-(4-(4-amino-1-isopropyl-7-(1-(tetrahydro-2H-pyran-4-yl)-1H-pyrazol-4-yl)-1H-pyrazolo[4,3-c]pyridin-3-yl)-2-(1-(4-fluorophenyl)ethoxy)phenyl)-1,1-difluoromethanesulfonamide] | 0.01 to 1 | > 10 |
| 0.001 to 0.1 | > 10 | > 10 | CC(C)n1nc(-c2ccc(NS(=O)(=O)C(F)F)c(O[C@@H](C)c3ccc(F)cc3)c2)c2c(N)ncc(-c3cnn(C)c3)c21 [Compound 52, (S)-N-(4-(4-amino-1-isopropyl-7-(1-methyl-1H-pyrazol-4-yl)-1H-pyrazolo[4,3-c]pyridin-3-yl)-2-(1-(4-fluorophenyl)ethoxy)phenyl)-1,1-difluoromethanesulfonamide] | 0.01 to 1 | > 10 |
